pEC50: −log10 of the molar value.
Key:
Assay type in all cases: biochemical
[1] = biological target: T1, JAK1 (Homo sapiens, UniProt P23458); experiment: JAK kinase assay (HTRF, phosphorylation of synthetic peptide), JAK1; conditions: catalytic domain, ATP at Km (7 μM); read-out: JAK1 kinase inhibitory activity (EC50)
T1 construct: JAK1 (aa 850-1154) and TYK2 (aa 871-1187) are expressed with an N-terminally fused GST-tag; GST (N); purchased Carna Biosciences, Inc; host or cells: baculovirus expression system
T1 sequence (P23458 850-1154): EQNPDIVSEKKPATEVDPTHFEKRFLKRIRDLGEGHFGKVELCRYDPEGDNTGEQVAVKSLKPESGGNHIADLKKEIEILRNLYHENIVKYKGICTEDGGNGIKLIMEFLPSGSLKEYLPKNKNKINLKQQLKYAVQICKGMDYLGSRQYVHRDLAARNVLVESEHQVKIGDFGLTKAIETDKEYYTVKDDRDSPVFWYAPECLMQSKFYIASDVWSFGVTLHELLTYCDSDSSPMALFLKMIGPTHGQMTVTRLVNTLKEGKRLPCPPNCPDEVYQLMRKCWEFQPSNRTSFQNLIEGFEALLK
How it was run: (§1)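 Catalytic-domain human JAK1 (GST-tagged, aa 850-1154) or His-tagged JAK2, baculovirus-expressed, phosphorylated 1 µM biotinylated TK peptide at Km ATP (JAK1 7 µM, 10 mM MgCl2, 50 nM SEB; JAK2 4 µM, 5 mM MgCl2) in pH 7.0 Hepes, 20-30 min RT. EDTA stop; overnight streptavidin-XL665/cryptate HTRF read.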

[2] = biological target: T2, JAK2 (Homo sapiens, UniProt O60674); experiment: JAK kinase assay (HTRF, phosphorylation of synthetic peptide), JAK2; conditions: catalytic domain, ATP at Km (4 μM); read-out: JAK2 kinase inhibitory activity (EC50)
T2 construct: All four purified enzymes contain only the catalytic domain; His (N); purchased Carna Biosciences, Inc; host or cells: baculovirus expression system
T2 sequence (O60674 849-1124 limits assumed): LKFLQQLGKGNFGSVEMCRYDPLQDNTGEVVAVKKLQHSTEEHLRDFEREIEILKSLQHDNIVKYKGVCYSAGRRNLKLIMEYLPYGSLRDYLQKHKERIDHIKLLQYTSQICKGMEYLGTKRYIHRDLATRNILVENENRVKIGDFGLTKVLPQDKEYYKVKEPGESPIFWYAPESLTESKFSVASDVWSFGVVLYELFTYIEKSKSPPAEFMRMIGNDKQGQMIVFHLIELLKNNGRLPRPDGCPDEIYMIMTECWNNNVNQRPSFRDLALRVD
How it was run: as §1

[3] = biological target: T3, JAK3 (Homo sapiens, UniProt P52333); experiment: JAK kinase assay (HTRF, phosphorylation of synthetic peptide), JAK3; conditions: catalytic domain, ATP at Km (2 μM); read-out: JAK3 kinase inhibitory activity (EC50)
T3 construct: All four purified enzymes contain only the catalytic domain; His (N); purchased Carna Biosciences, Inc; host or cells: baculovirus expression system
T3 sequence (P52333 822-1111 limits assumed): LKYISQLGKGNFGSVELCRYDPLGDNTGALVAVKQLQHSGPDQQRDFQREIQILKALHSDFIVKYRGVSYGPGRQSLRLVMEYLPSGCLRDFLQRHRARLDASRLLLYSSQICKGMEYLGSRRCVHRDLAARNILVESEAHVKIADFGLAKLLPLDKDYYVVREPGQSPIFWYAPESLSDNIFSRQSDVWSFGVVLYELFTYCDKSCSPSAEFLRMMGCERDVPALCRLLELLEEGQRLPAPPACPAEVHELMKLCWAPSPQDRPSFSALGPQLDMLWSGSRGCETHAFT

[4] = biological target: T4, TYK2 (Homo sapiens, UniProt P29597); experiment: JAK kinase assay (HTRF, phosphorylation of synthetic peptide), TYK2; conditions: catalytic domain, ATP at Km (13 μM); read-out: TYK2 kinase inhibitory activity (EC50)
T4 construct: JAK1 (aa 850-1154) and TYK2 (aa 871-1187) are expressed with an N-terminally fused GST-tag; GST (N); purchased Carna Biosciences, Inc; host or cells: baculovirus expression system
T4 sequence (P29597 871-1187): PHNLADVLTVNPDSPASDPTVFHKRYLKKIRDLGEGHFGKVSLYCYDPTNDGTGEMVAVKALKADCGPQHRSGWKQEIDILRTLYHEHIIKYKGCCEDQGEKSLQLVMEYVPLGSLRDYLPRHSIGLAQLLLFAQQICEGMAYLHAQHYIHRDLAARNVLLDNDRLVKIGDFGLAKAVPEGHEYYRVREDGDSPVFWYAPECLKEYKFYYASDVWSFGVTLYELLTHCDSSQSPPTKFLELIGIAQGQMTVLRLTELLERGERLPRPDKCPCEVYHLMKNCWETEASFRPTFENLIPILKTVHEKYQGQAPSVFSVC
How it was run: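 1 µM biotinylated TK peptide at Km ATP in pH 7.0 Hepes, 20-30 min RT. EDTA stop; overnight streptavidin-XL665/cryptate HTRF read.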

Structure (SMILES) | pEC50 [1] | pEC50 [2] | pEC50 [3] | pEC50 [4]
CC(C)(C)OC(=O)N(CCCS(C)(=O)=O)S(=O)(=O)N1CCN(c2ncnc3[nH]ccc23)CC12CC2 [Example 196, tert-butyl N-(3-methylsulfonylpropyl)-N-[[5-(7H-pyrrolo[2,3-d]pyrimidin-4-yl)-5,8-diazaspiro[2.5]octan-8-yl]sulfonyl]carbamate] | 6.30 to 7.00 | 6.30 to 7.00 | < 6.30 | < 6.30
CN(Cc1ccc(OC(F)(F)F)cc1)S(=O)(=O)N1CCN(c2ncnc3[nH]ccc23)CC12CC2 [Example 80, N-methyl-5-(7H-pyrrolo[2,3-d]pyrimidin-4-yl)-N-[[4-(trifluoromethoxy)phenyl]methyl]-5,8-diazaspiro[2.5]octane-8-sulfonamide] | 6.30 to 7.00 | 6.30 to 7.00 | < 6.30 | < 6.30
CN(Cc1ccccc1)S(=O)(=O)N1CCN(c2ncnc3[nH]ccc23)CC12CC2 [Example 52, 7-(7H-Pyrrolo[2,3-d]pyrimidin-4-yl)-4,7-diaza-spiro[2.5]octane-4-sulfonic acid benzyl-methyl-amide] | > 7.00 | > 7.00 | > 7.00 | 6.30 to 7.00
COCCN(C1CCC1)S(=O)(=O)N1CCN(c2ncnc3[nH]ccc23)CC12CC2 [Example 103, N-cyclobutyl-N-(2-methoxyethyl)-5-(7H-pyrrolo[2,3-d]pyrimidin-4-yl)-5,8-diazaspiro[2.5]octane-8-sulfonamide] | > 7.00 | > 7.00 | 6.30 to 7.00 | 6.30 to 7.00
CN(C[C@H]1CCCN1C=O)S(=O)(=O)N1CCN(c2ncnc3[nH]ccc23)CC12CC2 [Example 188, N-[[(2R)-1-formylpyrrolidin-2-yl]methyl]-N-methyl-5-(7H-pyrrolo[2,3-d]pyrimidin-4-yl)-5,8-diazaspiro[2.5]octane-8-sulfonamide] | > 7.00 | > 7.00 | > 7.00 | 6.30 to 7.00
CN(CC1CCC(C(C)(C)C)CC1)S(=O)(=O)N1CCN(c2ncnc3[nH]ccc23)CC12CC2 (centres unmarked) [Example 84, N-[(4-tert-butylcyclohexyl)methyl]-N-methyl-5-(7H-pyrrolo[2,3-d]pyrimidin-4-yl)-5,8-diazaspiro[2.5]octane-8-sulfonamide] | < 6.30 | < 6.30 | < 6.30 | < 6.30
N#CCN(CCO)S(=O)(=O)N1CCN(c2ncnc3[nH]ccc23)CC12CC2 [Example 108, N-(cyanomethyl)-N-(2-hydroxyethyl)-5-(7H-pyrrolo[2,3-d]pyrimidin-4-yl)-5,8-diazaspiro[2.5]octane-8-sulfonamide] | > 7.00 | > 7.00 | > 7.00 | 6.30 to 7.00
CN(CC1CC(F)(F)C1)S(=O)(=O)N1CCN(c2ncnc3[nH]ccc23)CC12CC2 [Example 85, N-[(3,3-difluorocyclobutyl)methyl]-N-methyl-5-(7H-pyrrolo[2,3-d]pyrimidin-4-yl)-5,8-diazaspiro[2.5]octane-8-sulfonamide] | > 7.00 | > 7.00 | > 7.00 | > 7.00
COC(=O)CN(C)S(=O)(=O)N1CCN(c2ncnc3[nH]ccc23)CC12CC2 [Example 34, {Methyl-[7-(7H-pyrrolo[2,3-d]pyrimidin-4-yl)-4,7-diaza-spiro[2.5]octane-4-sulfonyl]-amino}-acetic acid methyl ester] | > 7.00 | > 7.00 | > 7.00 | 6.30 to 7.00
O=S(=O)(N(CCO)CCO)N1CCN(c2ncnc3[nH]ccc23)CC12CC2 [Example 54, 7-(7H-Pyrrolo[2,3-d]pyrimidin-4-yl)-4,7-diaza-spiro[2.5]octane-4-sulfonic acid bis-(2-hydroxy-ethyl)-amide] | > 7.00 | > 7.00 | > 7.00 | 6.30 to 7.00
N#CCN(CC1CCS(=O)(=O)CC1)S(=O)(=O)N1CCN(c2ncnc3[nH]ccc23)CC12CC2 [Example 169, N-(cyanomethyl)-N-[(1,1-dioxothian-4-yl)methyl]-5-(7H-pyrrolo[2,3-d]pyrimidin-4-yl)-5,8-diazaspiro[2.5]octane-8-sulfonamide] | > 7.00 | > 7.00 | > 7.00 | > 7.00
N#CCCN(CC#N)S(=O)(=O)N1CCN(c2ncnc3[nH]ccc23)CC12CC2 [Example 171, N-(2-cyanoethyl)-N-(cyanomethyl)-5-(7H-pyrrolo[2,3-d]pyrimidin-4-yl)-5,8-diazaspiro[2.5]octane-8-sulfonamide] | > 7.00 | > 7.00 | > 7.00 | > 7.00
O=S(=O)(N1CCN(c2ncnc3[nH]ccc23)CC12CC2)n1ccnc1 [Int 15] | 6.30 to 7.00 | > 7.00 | < 6.30 | < 6.30

Further lines, results first:

pEC50 [1] | pEC50 [2] | pEC50 [3] | pEC50 [4] | Structure (SMILES)
> 7.00 | > 7.00 | 6.30 to 7.00 | < 6.30 | N#CC1CCCN(S(=O)(=O)N2CCN(c3ncnc4[nH]ccc34)CC23CC3)C1 (centres unmarked) [Example 42, 1-[7-(7H-Pyrrolo[2,3-d]pyrimidin-4-yl)-4,7-diaza-spiro[2.5]octane-4-sulfonyl]-piperidine-3-carbonitrile]
> 7.00 | > 7.00 | > 7.00 | > 7.00 | CN(C[C@H]1CCCN1C(=O)CO)S(=O)(=O)N1CCN(c2ncnc3[nH]ccc23)CC12CC2 [Example 185, N-[[(2R)-1-(2-hydroxyacetyl)pyrrolidin-2-yl]methyl]-N-methyl-5-(7H-pyrrolo[2,3-d]pyrimidin-4-yl)-5,8-diazaspiro[2.5]octane-8-sulfonamide]
> 7.00 | > 7.00 | > 7.00 | > 7.00 | O=S(=O)(N(CCO)CCc1ccccc1)N1CCN(c2ncnc3[nH]ccc23)CC12CC2 [Example 25, 7-(7H-Pyrrolo[2,3-d]pyrimidin-4-yl)-4,7-diaza-spiro[2.5]octane-4-sulfonic acid (2-hydroxy-ethyl)-phenethyl-amide]
> 7.00 | > 7.00 | > 7.00 | 6.30 to 7.00 | O=S(=O)(NCC1CCC(F)(F)CC1)N1CCN(c2ncnc3[nH]ccc23)CC12CC2 [Example 148, N-[(4,4-difluorocyclohexyl)methyl]-5-(7H-pyrrolo[2,3-d]pyrimidin-4-yl)-5,8-diazaspiro[2.5]octane-8-sulfonamide]
> 7.00 | > 7.00 | > 7.00 | 6.30 to 7.00 | CN(C[C@H]1CCCN1C(=O)CC#N)S(=O)(=O)N1CCN(c2ncnc3[nH]ccc23)CC12CC2 [Example 189, N-[[(2R)-1-(2-cyanoacetyl)pyrrolidin-2-yl]methyl]-N-methyl-5-(7H-pyrrolo[2,3-d]pyrimidin-4-yl)-5,8-diazaspiro[2.5]octane-8-sulfonamide]
> 7.00 | > 7.00 | 6.30 to 7.00 | < 6.30 | O=S(=O)(N(CCc1ccccc1)CC1CC1)N1CCN(c2ncnc3[nH]ccc23)CC12CC2 [Example 2, 7-(7H-Pyrrolo[2,3-d]pyrimidin-4-yl)-4,7-diaza-spiro[2.5]octane-4-sulfonic acid cyclopropylmethyl-phenethyl-amide]
> 7.00 | > 7.00 | 6.30 to 7.00 | < 6.30 | O=C(CN(CCc1ccccc1)S(=O)(=O)N1CCN(c2ncnc3[nH]ccc23)CC12CC2)NCc1ccccc1 [Example 49, N-Benzyl-2-{phenethyl-[7-(7H-pyrrolo[2,3-d]pyrimidin-4-yl)-4,7-diaza-spiro[2.5]octane-4-sulfonyl]-amino}-acetamide]
> 7.00 | > 7.00 | > 7.00 | > 7.00 | CN(CC1CCCC1)S(=O)(=O)N1CCN(c2ncnc3[nH]ccc23)CC12CC2 [Example 73, N-(cyclopentylmethyl)-N-methyl-5-(7H-pyrrolo[2,3-d]pyrimidin-4-yl)-5,8-diazaspiro[2.5]octane-8-sulfonamide]
> 7.00 | > 7.00 | > 7.00 | > 7.00 | CN(C[C@H]1CCC(=O)N1)S(=O)(=O)N1CCN(c2ncnc3[nH]ccc23)CC12CC2 [Example 184, N-methyl-N-[[(2R)-5-oxopyrrolidin-2-yl]methyl]-5-(7H-pyrrolo[2,3-d]pyrimidin-4-yl)-5,8-diazaspiro[2.5]octane-8-sulfonamide]
> 7.00 | > 7.00 | > 7.00 | 6.30 to 7.00 | CN(CCc1ccc(F)cc1)S(=O)(=O)N1CCN(c2ncnc3[nH]ccc23)CC12CC2 [Example 16, 7-(7H-Pyrrolo[2,3-d]pyrimidin-4-yl)-4,7-diaza-spiro[2.5]octane-4-sulfonic acid [2-(4-fluoro-phenyl)-ethyl]-methyl-amide]
